The results in this text go back to patent US9615580B2, “Fused heterocyclic compound and use thereof for pest control” (Sumitomo Chemical Company, Limited, priority 2012, dated 2017).

What all share (assay type): in vivo
For assay [1], the system named is Aphis gossypii. Briefly: Test Example 1: foliar spray on cucumber seedling inoculated with Aphis gossypii. The settings on record: 144 h, 500 ppm active ingredient, 20 ml sprayed on cucumber seedling, 6 days after spraying. As for the experimental part: On the other hand, on a cucumber seedling (the first true leaf stage) planted in a plastic cup was inoculated with about 30 Aphis gossypii (whole stage), and leaving it for a day. Twenty (20) ml of each test solution was sprayed on the seedling. Six (6) days after spraying, the number of the surviving Aphis gossypii parasitized on the leaves of the cucumber was examined, and a control value was calculated according to the following equation: Controlling value (%)={1−(Cb×Tai)/(Cai×Tb)}×100 wherein the symbols in the above equation represent as follows: Cb: the number of insects in a non-treated section before treatment Cai: the number of insects in a non-treated section on observation Tb: the number of insects in a treated section before treatment Tai: the number of insects in a […] the non-treated section represents a section where the test diluted solution prepared by diluting the formulation without the present compound as in Formulation Example 5 with the same amount of water as in the treated-section was used.

Assay [2] relates to Nilaparvata lugens. Briefly: Test Example 3: spray on rice seedling, Nilaparvata lugens larvae released. The settings on record: 144 h, 10 ml sprayed on rice seedling, third-fourth instar larvae, after 6 days. As for the experimental part:
On the other hand, a rice seedling (the second leaf stage) planted in a polyethylene cup was sprayed with 10 ml of each test solution. After air-drying, 20 third-fourth instar larvae of Nilaparvata lugens were released, and kept in the greenhouse of 25° C. After 6 days, the number of insect of living Nilaparvata lugens parasitized on the rice was examined, and a control value was calculated according to the following equation: Controlling value (%)={1−(Cb×Tai)/(Cai×Tb)}×100 wherein the symbols in the above equation represent as follows: Cb: the number of insects in a non-treated section before treatment Cai: the number of insects in a non-treated section on observation Tb: the number of insects in a treated section before treatment Tai: the number of insects in a […] the non-treated section represents a section where the test diluted solution prepared by diluting the formulation without the present compound as in Formulation Example 5 with the same amount of water as in the treated-section was used.

Assay [3] deals with Nilaparvata lugens. Briefly: Test Example 4: soil drench of rice seedling, Nilaparvata lugens larvae released. Conditions: 144 h, 5 ml drench at foot of rice seedling, larvae released after 7 days, counted 6 days later. As for the experimental part:
On the other hand, a rice seedling (2 weeks after sowing, the second leaf stage) planted in a plastic cup was drenched at its foot with 5 ml of each test solution, and kept in a greenhouse of 25° C. for 7 days. Twenty (20) third-fourth instar larvae of Nilaparvata lugens were released, and further kept in the greenhouse for 6 days, then the number of insect of living Nilaparvata lugens parasitized on the rice was examined, and a control value was calculated according to the following equation: Controlling value (%)={1−(Cb×Tai)/(Cai×Tb)}×100 wherein the symbols in the above equation represent as follows: Cb: the number of insects in a non-treated section before treatment Cai: the number of insects in a non-treated section on observation Tb: the number of insects in a treated section before treatment Tai: the number of insects in a […] the non-treated section represents a section where the test diluted solution prepared by diluting the formulation without the present compound as in Formulation Example 5 with the same amount of water as in the treated-section was used.

Assay [4] relates to Plutella xylostella. Briefly: Test Example 6: spray on cabbage, Plutella xylostella larvae released. Conditions: 120 h, 20 mL/cup sprayed on cabbage, second instar larvae, 25° C., 5 days, read-out: death rate. As for the experimental part: Each test solution was prepared by diluting a formulation containing any of the present compounds 1-4, 1-5, 1-6, 1-8, 1-9, 1-10, 1-16, 1-18, 1-19, 1-20, 1-29, 1-46, 1-48, 1-49, 1-50, 1-63 and 1-76 as obtained in Formulation Example 5, with water so as to give 500 ppm of the concentration of the active ingredient.
On the other hand, Cabbage (the third leaf stage) planted in a polyethylene cup was sprayed with 20 mL/cup of each test solution. After the test solution was dried, the aerial part was cut off, and then placed in a 50 mL volume cup. Five (5) second instar larvae of Plutella xylostella were released into the cup, and the cup was sealed with a lid. After the cup was kept at 25° C. for 5 days, the number of living insects was counted. A death rate was calculated according to the following equation: Death rate (%)=(Number of dead insects/Number of tested insects)×100

In assay [5] the test system is Musca domestica. Briefly: Test Example 8: treated filter paper with sucrose bait, Musca domestica. The settings on record: 500 ppm, 0.7 ml on filter paper, female imagoes, after 24 hours. The protocol: Each test solution was prepared by diluting a formulation containing any of the present compounds 1-4, 1-6, 1-8, 1-9, 1-10, 1-63 and 1-95 as obtained in Formulation Example 5, with water so as to give 500 ppm of the concentration of the active ingredient.
A filter paper having a diameter of 5.5 cm was spread on the bottom of a polyethylene cup having a diameter of 5.5 cm and each test solution (0.7 ml) was added dropwise onto the filter paper. As a bait sucrose (30 mg) was uniformly placed on the filter paper. Into the polyethylene cup, 10 female imagoes of Musca domestica were released and the cup was sealed with a lid. After 24 hours, the number of surviving Musca domestica was examined and the death rate of the pest was calculated according to the following equation: Death rate (%)=(Number of dead insects/Number of tested insects)×100

Assay [6] has as its system Blattalla germanica. As to the kind of experiment: Test Example 9: treated filter paper with sucrose bait, Blattalla germanica. The settings on record: 500 ppm, 0.7 ml on filter paper, male imagoes, after 6 hours. The protocol: Each test solution was prepared by diluting a formulation containing any of the present compounds 1-9 and 1-19 as obtained in Formulation Example 5, with water so as to give 500 ppm of the concentration of the active ingredient.
A filter paper having a diameter of 5.5 cm was spread on the bottom of a polyethylene cup having a diameter of 5.5 cm and each test solution (0.7 ml) was added dropwise onto the filter paper. Sucrose (30 mg) as a bait was uniformly placed on the filter paper. Into the polyethylene cup, 2 male imagoes of Blattalla germanica were released and the cup was sealed with a lid. After 6 hours, the number of surviving Blattalla germanica was examined and the death rate of the pest was calculated according to the following equation: Death rate (%)=(Number of dead insects/Number of tested insects)×100

In assay [7] the test system is Laodelphax striatella. As to the kind of experiment: Test Example 12: spray on rice seedling, Laodelphax striatella larvae released. Conditions: 50 ppm, 10 ml sprayed on rice seedling, third instar larvae, after 5 days; method equation is a death rate. The protocol:
(§1) Any of the present compounds 1-6, 1-8, 1-9 and 1-10 (10 mg) was dissolved in a mixed solution (0.1 ml) of xylene, DMF and Sorpol® 3005X (manufactured by Toho Chemical Industry Co., Ltd.) in a ratio of 4:4:1 to obtain a formulation. Each formulation was diluted with water so as to give 50 ppm of the concentration of the active ingredient.
On the other hand, a rice seedling (2.5 leaf stage) planted in a polyethylene cup was sprayed with 10 ml of each test solution. After air-drying the seedling, 10 third instar larvae of Laodelphax striatella were released, and kept in the greenhouse of 25° C. After 5 days, the number of living insects was counted. A death rate was calculated according to the following equation: Death rate (%)={10−(Number of living insects after 5 days)/10}×100

Assay [8] has as its system Sogatella furcifera. Briefly: Test Example 13: spray on rice seedling, Sogatella furcifera larvae released. Conditions: 50 ppm, 10 ml sprayed on rice seedling, third instar larvae, after 5 days; method equation is a death rate. The protocol: as §1
On the other hand, a rice seedling (2.5 leaf stage) planted in a polyethylene cup was sprayed with 10 ml of each test solution. After air-drying the seedling, 10 third instar larvae of Sogatella furcifera were released, and kept in the greenhouse of 25° C. After 5 days, the number of living insects was counted. A death rate was calculated according to the following equation: Death rate (%)={10−(Number of living insects after 5 days)/10}×100 As a result, in the treated-section using each test solution containing each of the present compounds 1-6, 1-8, 1-9 and 1-10, the control value was 100%.

`CCS(=O)(=O)c1cccnc1-c1nc2cc([S+]([O-])C(F)(F)F)ccc2o1` (centres unmarked) [present compound 1-9, 2-(3-ethylsulfonylpyridin-2-yl)-5-(trifluoromethylsulfinyl)benzoxazole]: the pest or weed control at 500 ppm was no less than 90% in assay [1], no less than 90% in assay [2], no less than 90% in assay [3] and no less than 80% in assay [4]. Besides, the death rate in assay [5] and in assay [6] was 100% each time. The control value in assay [7] and in assay [8] was 100% throughout.
